Test results taken from patent publication US20100267561A1, “HERBICIDAL PYRIDAZINONE DERIVATIVES” (priority 2007, published 2010).

Columns and labels:
Format in all cases: in vivo
[1] = tested on: giant foxtail (Setaria faberi); experiment: Test A pre-/postemergence plant response
Procedure, shortened: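 Both pre- and postemergence treatment given concurrently; postemergence seedlings measured 2–10 cm at the one- to two-leaf stage. Visual injury, 0–100 scale versus untreated, at ~10 days.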

[2] = tested on: bermudagrass (Cynodon dactylon); experiment: Test B pre-/postemergence plant response; conditions: for Bermudagrass plant response rating: 8 g ai/ha
Procedure, shortened: (§1)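 Preemergence and postemergence (plants 2-18 cm, 1- to 4-leaf stage) applications used test chemicals in a non-phytotoxic solvent with surfactant. Plants were held in a greenhouse 13 to 15 days, then rated visually against controls on a 0-100 scale (0 no effect, 100 complete control).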

[3] = tested on: blackgrass (Alopecurus myosuroides); experiment: Test B pre-/postemergence plant response; conditions: for Plant response rating, Blackgrass: Postemergence
Procedure, shortened: as §1

[4] = tested on: common (oilseed) sunflower (Helianthus annuus); experiment: Test B pre-/postemergence plant response; conditions: Preemergence
Procedure, shortened: as §1

[5] = tested on: downy bromegrass (Bromus tectorum); experiment: Test B pre-/postemergence plant response; conditions: for Bromegrass, Downy plant response rating: 8 g ai/ha
Procedure, shortened: as §1

[6] = tested on: giant foxtail (Setaria faberii); experiment: Test B pre-/postemergence plant response; conditions: for Foxtail, Giant plant response rating: 8 g ai/ha
Procedure, shortened: as §1

[7] = tested on: goosegrass (Eleusine indica); experiment: Test B pre-/postemergence plant response; conditions: for Goosegrass plant response rating: 8 g ai/ha
Procedure, shortened: as §1

[8] = tested on: johnsongrass (Sorghum halepense); experiment: Test B pre-/postemergence plant response; conditions: for Johnsongrass plant response rating: 8 g ai/ha
Procedure, shortened: as §1

[9] = tested on: pigweed (Amaranthus retroflexus); experiment: Test B pre-/postemergence plant response; conditions: for Pigweed plant response rating: 8 g ai/ha
Procedure, shortened: as §1

[10] = tested on: soybean (Glycine max); experiment: Test B pre-/postemergence plant response
Procedure, shortened: as §1

[11] = tested on: velvetleaf (Abutilon theophrasti); experiment: Test B pre-/postemergence plant response; conditions: for Velvetleaf plant response rating: 8 g ai/ha
Procedure, shortened: as §1

[12] = tested on: wheat (Triticum aestivum); experiment: Test B pre-/postemergence plant response; conditions: for Wheat plant response rating: 8 g ai/ha
Procedure, shortened: as §1

[13] = Postemergence, 16 g ai/ha, scale 0 to 100
[14] = Postemergence, 31 g ai/ha, scale 0 to 100, 0 no effect, 100 complete control
[15] = Postemergence, 62 g ai/ha, scale 0 to 100, 0 no effect, 100 complete control
[16] = Preemergence, 16 g ai/ha, scale 0 to 100 (0 no effect, 100 complete control)
[17] = Preemergence, 31 g ai/ha, 0 to 100 scale, 0 no effect, 100 complete control
[18] = Preemergence, 62 g ai/ha, scale 0 to 100
[19] = 8 g ai/ha, postemergence, 0-100 scale

## Cn1ncc(O)c(-c2nn(-c3ccc(Cl)cc3)cc2Cl)c1=O [Compound 28]
[1]; Postemergence, 125 g ai/ha, 0 to 100 scale, 0 no effect, 100 complete control
  Plant response rating, Foxtail, Giant: 90
[1]; Postemergence, 500 g ai/ha, 0 to 100 scale, 0 no effect, 100 complete control
  Plant response rating, Foxtail, Giant: 90
[1]; Preemergence, 125 g ai/ha, 0 to 100 scale (0 no effect, 100 complete control)
  Plant response rating, Foxtail, Giant: 100
[1]; Preemergence, 500 g ai/ha, 0 to 100 scale (0 no effect, 100 complete control)
  Plant response rating, Foxtail, Giant: 100
[2]; postemergence, 0-100 scale
  Bermudagrass plant response rating: 65
[2]; [13]
  Plant response rating, Bermudagrass: 80
[2]; [14]
  Plant response rating, Bermudagrass: 100
[2]; [15]
  Plant response rating, Bermudagrass: 100
[2]; Preemergence, scale 0 to 100 (0 no effect, 100 complete control)
  Bermudagrass plant response rating: 0
[2]; [16]
  Plant response rating, Bermudagrass: 100
[2]; [17]
  Plant response rating, Bermudagrass: 100
[2]; [18]
  Plant response rating, Bermudagrass: 100
[3]; [19]
  Blackgrass plant response rating: 60
[3]; 16 g ai/ha, scale 0 to 100
  Plant response rating, Blackgrass: 70
[3]; 31 g ai/ha, scale 0 to 100, 0 no effect, 100 complete control
  Plant response rating, Blackgrass: 95
[3]; 62 g ai/ha, scale 0 to 100, 0 no effect, 100 complete control
  Plant response rating, Blackgrass: 100
[4]; 16 g ai/ha, scale 0 to 100 (0 no effect, 100 complete control)
  Plant response rating, Sunflower: 0
[4]; 31 g ai/ha, 0 to 100 scale, 0 no effect, 100 complete control
  Plant response rating, Sunflower: 0
[4]; 62 g ai/ha, scale 0 to 100
  Plant response rating, Sunflower: 0
[4]; 8 g ai/ha, scale 0 to 100
  Sunflower plant response rating: 0
[5]; postemergence, 0-100 scale
  Bromegrass, Downy plant response rating: 0
[5]; [13]
  Plant response rating, Bromegrass, Downy: 5
[5]; [14]
  Plant response rating, Bromegrass, Downy: 10
[5]; [15]
  Plant response rating, Bromegrass, Downy: 20
[5]; [16]
  Plant response rating, Bromegrass, Downy: 40
[5]; [17]
  Plant response rating, Bromegrass, Downy: 50
[5]; [18]
  Plant response rating, Bromegrass, Downy: 50
[5]; Preemergence, scale 0 to 100
  Bromegrass, Downy plant response rating: 20
[6]; postemergence, 0-100 scale
  Foxtail, Giant plant response rating: 65
[6]; [13]
  Plant response rating, Foxtail, Giant: 80
[6]; [14]
  Plant response rating, Foxtail, Giant: 95
[6]; [15]
  Plant response rating, Foxtail, Giant: 100
[6]; [16]
  Plant response rating, Foxtail, Giant: 98
[6]; [17]
  Plant response rating, Foxtail, Giant: 100
[6]; [18]
  Plant response rating, Foxtail, Giant: 100
[6]; Preemergence, scale 0 to 100
  Foxtail, Giant plant response rating: 60
[7]; postemergence, 0-100 scale
  Goosegrass plant response rating: 65
[7]; [13]
  Plant response rating, Goosegrass: 75
[7]; [14]
  Plant response rating, Goosegrass: 80
[7]; [15]
  Plant response rating, Goosegrass: 90
[7]; [16]
  Plant response rating, Goosegrass: 100
[7]; [17]
  Plant response rating, Goosegrass: 100
[7]; [18]
  Plant response rating, Goosegrass: 100
[7]; Preemergence, scale 0 to 100
  Goosegrass plant response rating: 80
[8]; postemergence, 0-100 scale
  Johnsongrass plant response rating: 20
[8]; [13]
  Plant response rating, Johnsongrass: 65
[8]; [14]
  Plant response rating, Johnsongrass: 75
[8]; [15]
  Plant response rating, Johnsongrass: 98
[8]; [16]
  Plant response rating, Johnsongrass: 85
[8]; [17]
  Plant response rating, Johnsongrass: 98
[8]; [18]
  Plant response rating, Johnsongrass: 100
[8]; Preemergence, scale 0 to 100
  Johnsongrass plant response rating: 70
[9]; postemergence, 0-100 scale
  Pigweed plant response rating: 0
[9]; [13]
  Plant response rating, Pigweed: 0
[9]; [14]
  Plant response rating, Pigweed: 0
[9]; [15]
  Plant response rating, Pigweed: 0
[9]; [16]
  Plant response rating, Pigweed: 0
[9]; [17]
  Plant response rating, Pigweed: 0
[9]; [18]
  Plant response rating, Pigweed: 0
[9]; Preemergence, scale 0 to 100
  Pigweed plant response rating: 0
[10]; [19]
  Soybean plant response rating: 0
[10]; [13]
  Plant response rating, Soybean: 0
[10]; [15]
  Plant response rating, Soybean: 20
[10]; [17]
  Plant response rating, Soybean: 0
[10]; [18]
  Plant response rating, Soybean: 0
[11]; postemergence, 0-100 scale
  Velvetleaf plant response rating: 0
[11]; [13]
  Plant response rating, Velvetleaf: 0
[11]; [15]
  Plant response rating, Velvetleaf: 0
[11]; [16]
  Plant response rating, Velvetleaf: 0
[11]; [17]
  Plant response rating, Velvetleaf: 0
[11]; [18]
  Plant response rating, Velvetleaf: 0
[11]; Preemergence, scale 0 to 100
  Velvetleaf plant response rating: 0
[12]; postemergence, 0-100 scale
  Wheat plant response rating: 20
[12]; [13]
  Plant response rating, Wheat: 40
[12]; [15]
  Plant response rating, Wheat: 90
[12]; [16]
  Plant response rating, Wheat: 5
[12]; [17]
  Plant response rating, Wheat: 15
[12]; [18]
  Plant response rating, Wheat: 90
[12]; Preemergence, scale 0 to 100
  Wheat plant response rating: 0
